The target of assay [1] is T1, human 20S proteasome (h20S core particle).
T1 construct: gene PSMB5
Description: fluorogenic AMC peptide cleavage by purified h20S (activation; Ch-L EC50 […], T-L EC50 […]). In kind it is biochemical.

Assay [2] concerns T1, human 20S proteasome (h20S core particle). Description: fluorogenic AMC peptide cleavage by h20S at […] (activation similar to suxibuzone). Format: biochemical.

Broadly, the EC50 is the concentration giving half of the maximal effect. A low value points to greater potency. Turning to `CCCCC1(COC(=O)CCC(=O)O)C(=O)N(c2ccccc2)N(c2ccccc2)C1=O` [SB, suxibuzone], a half-maximal response in assay [1] (EC50) required 4.4 ± 0.4 µM.
Consider `CCCCC1(COC(=O)CCC(=O)NCCO)C(=O)N(c2ccccc2)N(c2ccccc2)C1=O` [SB-ETA], for which the “fluorogenic AMC peptide cleavage by h20S at 5 and 10 uM (activation similar to s)” value in assay [2] is reported as “both test compounds had activity similar to suxibuzone, with no statistically significant difference”.

These data come from PMC12677842, “Unveiling the Potential of a New β‐Cyclodextrin‐Suxibuzone Conjugate in Proteasome Regulation” (Chemmedchem, 2025).
